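Dose response: 5 concentrations. Exposure: 48 h. Format: 96-well plates. Endpoint: linear interpolation; highest concentration if not reached. GI50 marks 50% less growth. TGI marks complete inhibition of growth.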
Assays:
Test in all cases: inhibition of tumour cell growth, NCI panel, 48 h
[1] = tested on: 786-0 renal
[2] = tested on: A498 renal
[3] = tested on: A549 NSCLC
[4] = tested on: ACHN renal
[5] = tested on: BT-549 breast
[6] = tested on: CAKI-1 renal
[7] = tested on: CCRF-CEM leukemia
[8] = tested on: COLO 205 colon
[9] = tested on: DU-145 prostate
[10] = tested on: EKVX NSCLC
[11] = tested on: HCC-2998 colon
[12] = tested on: HCT-116 colon
[13] = tested on: HCT-15 colon
[14] = tested on: HL-60(TB) leukemia
[15] = tested on: HOP-62 NSCLC
[16] = tested on: HOP-92 NSCLC
[17] = tested on: HS 578T breast
[18] = tested on: HT29 colon
[19] = tested on: IGROV1 ovarian
[20] = tested on: K-562 leukemia
[21] = tested on: KM12 colon
[22] = tested on: LOX IMVI melanoma
[23] = tested on: M14 melanoma
[24] = tested on: MALME-3M melanoma
[25] = tested on: MCF7 breast
[26] = tested on: MDA-MB-231 breast
[27] = tested on: MDA-MB-435
[28] = tested on: MDA-MB-468 breast
[29] = tested on: MOLT-4 leukemia
[30] = tested on: NCI-H226 lung
[31] = tested on: NCI-H23 lung
[32] = tested on: NCI-H460 lung
[33] = tested on: NCI-H522 lung
[34] = tested on: OVCAR-3 ovarian
[35] = tested on: OVCAR-4 ovarian
[36] = tested on: OVCAR-5 ovarian
[37] = tested on: OVCAR-8 ovarian
[38] = tested on: PC-3 prostate
[39] = tested on: RPMI-8226 leukemia
[40] = tested on: RXF 393 renal
[41] = tested on: SF-268 CNS
[42] = tested on: SF-295 CNS
[43] = tested on: SF-539 CNS
[44] = tested on: SK-MEL-2 melanoma
[45] = tested on: SK-MEL-28 melanoma
[46] = tested on: SK-MEL-5 melanoma
[47] = tested on: SK-OV-3 ovarian
[48] = tested on: SN12C renal
[49] = tested on: SNB-19 CNS
[50] = tested on: SNB-75 CNS
[51] = tested on: SR leukemia
[52] = tested on: SW-620 colon
[53] = tested on: T-47D breast
[54] = tested on: TK-10 renal
[55] = tested on: U251 CNS
[56] = tested on: UACC-257 melanoma
[57] = tested on: UACC-62 melanoma
[58] = tested on: UO-31 renal
[59] = tested on: NCI/ADR-RES ovarian

CC1CCCCN1CCCNC(=O)N/C(N)=N/c1nc2ccccc2s1 (centres undefined)
GI50 [1]: 17.2 µM | TGI [1]: 32.7 µM | GI50 [2]: 17 µM | TGI [2]: 38.2 µM | GI50 [3]: 21 µM | TGI [3]: 57.7 µM | GI50 [4]: 19.1 µM | TGI [4]: 48.1 µM | GI50 [5]: 16.5 µM | TGI [5]: 59.3 µM | GI50 [6]: 13.3 µM | TGI [6]: 28 µM | GI50 [7]: 19.6 µM | TGI [7]: 57.8 µM | GI50 [8]: 14 µM | TGI [8]: 28.2 µM | GI50 [9]: 46.7 µM | TGI [9]: > 100 µM | GI50 [10]: 27.9 µM | TGI [10]: > 100 µM | GI50 [11]: 15.2 µM | TGI [11]: 29.2 µM | GI50 [12]: 15 µM | TGI [12]: 28.9 µM | GI50 [13]: 16.4 µM | TGI [13]: 33.4 µM | GI50 [14]: 11.5 µM | TGI [14]: 33.8 µM | GI50 [15]: 21.3 µM | TGI [15]: > 100 µM | GI50 [16]: 4.96 µM | TGI [16]: 41.6 µM | GI50 [17]: 15.1 µM | TGI [17]: 50.1 µM | GI50 [18]: 15.3 µM | TGI [18]: 46.2 µM | GI50 [19]: 21.3 µM | TGI [19]: 76.7 µM | GI50 [20]: 15.8 µM | TGI [20]: 46.7 µM | GI50 [21]: 27 µM | TGI [21]: > 100 µM | GI50 [22]: 13.9 µM | TGI [22]: 27.7 µM | GI50 [23]: 15.8 µM | TGI [23]: 30.5 µM | GI50 [24]: 13.9 µM | TGI [24]: 27.1 µM | GI50 [25]: 15 µM | TGI [25]: 31.7 µM | GI50 [26]: 14.8 µM | TGI [26]: 40.7 µM | GI50 [27]: 16.2 µM | TGI [27]: 30.2 µM | GI50 [28]: 14.7 µM | TGI [28]: 30.7 µM | GI50 [29]: 12.1 µM | TGI [29]: 51.9 µM | GI50 [30]: 27.7 µM | TGI [30]: > 100 µM | GI50 [31]: 27 µM | TGI [31]: > 100 µM | GI50 [32]: 19.1 µM | TGI [32]: 40.6 µM | GI50 [33]: 18.3 µM | TGI [33]: 43.8 µM | GI50 [34]: 24 µM | TGI [34]: > 100 µM | GI50 [35]: 63.1 µM | TGI [35]: > 100 µM | GI50 [36]: 22.5 µM | TGI [36]: 68.5 µM | GI50 [37]: 27.5 µM | TGI [37]: > 100 µM | GI50 [38]: 20 µM | TGI [38]: > 100 µM | GI50 [39]: 17.4 µM | TGI [39]: 51.3 µM | GI50 [40]: 10.2 µM | TGI [40]: 33.3 µM | GI50 [41]: 21.1 µM | TGI [41]: 79.8 µM | GI50 [42]: 16 µM | TGI [42]: 30.7 µM | GI50 [43]: 15.8 µM | TGI [43]: 30.1 µM | GI50 [44]: 16 µM | TGI [44]: 31.1 µM | GI50 [45]: 16.6 µM | TGI [45]: 30.5 µM | GI50 [46]: 13.3 µM | TGI [46]: 26.2 µM | GI50 [47]: 19.7 µM | TGI [47]: 89.1 µM | GI50 [48]: 36.7 µM | TGI [48]: > 100 µM | GI50 [49]: 29.7 µM | TGI [49]: > 100 µM | GI50 [50]: 7.4 µM | TGI [50]: 55.2 µM | GI50 [51]: 18.7 µM | TGI [51]: 58.5 µM | GI50 [52]: 16.2 µM | TGI [52]: 34.1 µM | GI50 [53]: 15.4 µM | TGI [53]: 39.6 µM | GI50 [54]: 20.8 µM | TGI [54]: 46 µM | GI50 [55]: 17 µM | TGI [55]: 39.3 µM | GI50 [56]: 15.8 µM | TGI [56]: 30.7 µM | GI50 [57]: 16.8 µM | TGI [57]: 31.7 µM | GI50 [58]: 10.2 µM | TGI [58]: 25.2 µM

Cc1nc(Nc2ncc(C(=O)Nc3c(C)cccc3Cl)s2)cc(N2CCN(CCCNC(=O)COc3ccc(C4CCC(=O)NC4=O)cc3)CC2)n1 (centres undefined)
GI50 [1]: 0.445 µM | TGI [1]: > 100 µM | GI50 [2]: 2.93 µM | TGI [2]: > 100 µM | GI50 [3]: 2.23 µM | TGI [3]: > 48.1 µM | GI50 [4]: 0.757 µM | TGI [4]: > 100 µM | GI50 [5]: > 100 µM | TGI [5]: > 100 µM | GI50 [6]: 0.206 µM | TGI [6]: 1.83 µM | GI50 [7]: 34 µM | TGI [7]: > 100 µM | GI50 [8]: 0.0695 µM | TGI [8]: > 100 µM | GI50 [9]: 2.3 µM | TGI [9]: > 100 µM | GI50 [10]: 1.85 µM | TGI [10]: > 100 µM | GI50 [11]: > 100 µM | TGI [11]: > 100 µM | GI50 [12]: 2.5 µM | TGI [12]: > 92.5 µM | GI50 [13]: 9.01 µM | TGI [13]: > 100 µM | GI50 [14]: > 79.5 µM | TGI [14]: > 100 µM | GI50 [15]: 0.336 µM | TGI [15]: > 100 µM | GI50 [16]: < 0.01 µM | TGI [16]: 0.0498 µM | GI50 [17]: 0.0167 µM | TGI [17]: 0.13 µM | GI50 [18]: 0.181 µM | TGI [18]: 2.54 µM | GI50 [20]: < 0.01 µM | TGI [20]: > 100 µM | GI50 [21]: > 91.9 µM | TGI [21]: > 100 µM | GI50 [22]: 0.0182 µM | TGI [22]: 0.218 µM | GI50 [23]: > 59.2 µM | TGI [23]: > 100 µM | GI50 [24]: > 100 µM | TGI [24]: > 100 µM | GI50 [25]: > 100 µM | TGI [25]: > 100 µM | GI50 [26]: 0.0256 µM | TGI [26]: 10.6 µM | GI50 [27]: > 100 µM | TGI [27]: > 100 µM | GI50 [28]: 0.172 µM | TGI [28]: 5.16 µM | GI50 [29]: 7.64 µM | TGI [29]: > 100 µM | GI50 [31]: 16.9 µM | TGI [31]: > 100 µM | GI50 [32]: > 100 µM | TGI [32]: > 100 µM | GI50 [33]: 1.3 µM | TGI [33]: > 100 µM | GI50 [59]: > 100 µM | TGI [59]: > 100 µM | GI50 [34]: 0.275 µM | TGI [34]: > 100 µM | GI50 [35]: > 100 µM | TGI [35]: > 100 µM | GI50 [36]: 0.191 µM | TGI [36]: > 100 µM | GI50 [37]: 0.934 µM | TGI [37]: > 52.2 µM | GI50 [38]: 2.43 µM | TGI [38]: > 100 µM | GI50 [39]: > 100 µM | TGI [39]: > 100 µM | GI50 [40]: 0.0147 µM | TGI [40]: 0.081 µM | GI50 [41]: 0.11 µM | TGI [41]: > 100 µM | GI50 [42]: 6.78 µM | TGI [42]: > 100 µM | GI50 [43]: 0.0507 µM | TGI [43]: 4.7 µM | GI50 [44]: > 100 µM | TGI [44]: > 100 µM | GI50 [45]: > 100 µM | TGI [45]: > 100 µM | GI50 [46]: 66.7 µM | TGI [46]: > 100 µM | GI50 [47]: 0.505 µM | TGI [47]: 6.95 µM | GI50 [48]: 0.0309 µM | TGI [48]: > 100 µM | GI50 [49]: > 100 µM | TGI [49]: > 100 µM | GI50 [50]: < 0.01 µM | GI50 [51]: 2.8 µM | TGI [51]: > 100 µM | GI50 [52]: > 100 µM | TGI [52]: > 100 µM | GI50 [53]: 0.454 µM | TGI [53]: > 100 µM | GI50 [54]: 0.517 µM | TGI [54]: 4.12 µM | GI50 [55]: > 100 µM | TGI [55]: > 100 µM | GI50 [56]: > 100 µM | TGI [56]: > 100 µM | GI50 [57]: > 100 µM | TGI [57]: > 100 µM | GI50 [58]: 1.47 µM | TGI [58]: > 100 µM

Reference: PubChem BioAssay (NCI)
